These results are taken from article PMC11311998, “AR71, Histamine H3 Receptor Ligand—In Vitro and In Vivo Evaluation (Anti-Inflammatory Activity, Metabolic Stability, Toxicity, and Analgesic Action)” (International Journal of Molecular Sciences, 2024).

Test [1] has as its system SH-SY5Y cells. The test is classed as cell-based, human. The following applies: rotenone alone 6.25 μM, 24 h. How it is done:
To test neuroprotective activity, SH-SY5Y cells were pre-treated for 1 h with various concentrations of AR71, after which rotenone (6.25 μM) was added and the cells were cultured for another 24 h. […] Co-treatment with AR71 protected cells from the toxic effect of rotenone, resulting in LDH leakage ranging from 10 to 22% only.
The protective effect of AR71 against rotenone-induced toxicity in SH-SY5Y cells was assessed by measuring LDH release. SH-SY5Y cells (6 × 10^3 cells/100 μL/well) were seeded in black 96-well plates Nunclon^TM Delta Surface no. 137101 (ThermoFischer Scientific, Waltham, MA, USA) and cultured overnight. The next day, the medium was removed and replaced with a fresh one with an increasing concentration of AR71 (0.0975–50 μM). After 1 h of compound pre-treatment, the neurotoxin rotenone (6.25 μM) was added, and the cells were cultured for another 24 h. For the negative and positive controls, cells were treated with 0.1% DMSO and 6.25 μM of rotenone alone, respectively. The cells treated with the compound alone were used to compare the effect with those co-treated with rotenone. After 24 h, the level of LDH leakage was measured by the CytoTox-ONE™ Homogeneous Membrane Integrity Assay (Promega, Madison, WI, USA) following the manufacturer’s protocol. Briefly, 100 μL of CytoTox-ONE™ reagent (Promega, Madison, WI, USA) was added to each well, and the cells were incubated for 10 min at room temperature protected from light. The fluorescence was measured using the multimode plate reader Tecan Spark (Tecan, Männedorf, Switzerland) with an excitation wavelength of 560 nm and an emission wavelength of 590 nm.

For test [2], the system named is SH-SY5Y cells. The test is described as follows: mitochondrial membrane potential (JC-10). Type of test: cell-based, human. As to conditions: 50 μM, 3 h. On the procedure: Neurotoxin-like rotenone induces oxidative stress inside cells that might influence mitochondrial membrane potential (MMP). Maintaining unaffected MMP is essential for neuroprotection. In our study, we tested the effect of AR71 on MMP in the presence and absence of rotenone.
Next, the effect of AR71 (0.78 μM) when co-treated with rotenone was tested; 1 μM carbonyl cyanide m-chlorophenylhydrazone (CCCP) was used as a positive control.
The MMP was measured by a commercially available kit (Sigma Aldrich, MAK159, for live cells) that utilises a cationic, lipophilic dye JC-10. It allows for ratiometric analysis of mitochondrial membrane potential, where a shift from orange (λEX/λEM: 540 nm/590 nm) to green fluorescence (λEX/λEM: 490 nm/525 nm) is indicative of compromised mitochondria. For this assay, the SH-SY5Y cells (1 × 10^4 cells/well) were seeded in a black-sided clear bottom 96-well plate (Thermo Scientific Nunclon^TM Delta Surface no. 137101, Denmark) in a complete culture medium. First, to choose the optimal concentration of rotenone in this assay, a dose–response effect of rotenone (0.05, 0.5, 5, 50 μM) was studied. Next, the cells were pre-treated with AR71 (0.78 μM) for 1 h before rotenone stimulation (50 μM) for another 3 h. […] The positive control was carbonyl cyanide m-chlorophenylhydrazone (CCCP; 1 μM)—uncoupling agent on the proton gradient. After incubation, 50 μL/well of the JC-10 dye loading solution was added to each well with cells. The plate was incubated for 45 min in the incubator. Then, 50 μL/well of Assay Buffer B was added to each well, and the fluorescence was monitored immediately. The red/green fluorescence intensity ratio was used to calculate the results.

Test [3] concerns rat models of neuropathic pain. Also on record: method as in PMID 18164820. The following applies: surgically or virus-induced; cited from earlier work.

Each structure is given as a SMILES string.

For `C=C(C)[C@H]1Cc2c(ccc3c2O[C@@H]2COc4cc(OC)c(OC)cc4[C@@H]2C3=O)O1` [rotenone, reference compound], the “LDH leakage vs control cells” value in test [1] is on record as “twice as much LDH leakage as control cells”. Further, in test [2], the “reduction of MMP compared with control cells” value was 67%. For the compound `CNC(=O)c1ccc(Oc2ccc3c(c2)CCN(C2CCC2)CC3)nc1` [GSK189254], the “efficacy in rat models of neuropathic pain” value in test [3] was “effective”.

For `CC(C)N1CCCN(C(=O)C2CCN(c3ccc(C(F)(F)F)nc3)CC2)CC1` [GSK334429], the “efficacy in rat models of neuropathic pain” value in test [3] is on record as “effective”.
